Laboratory results published in US10959984B2, “Methods for treating cancer with RORγ inhibitors” (THE REGENTS OF THE UNIVERSITY OF CALIFORNIA, priority 2015, dated 2021).

Key:
AR = assay: ARE reporter gene assay (5xARE-tk-luc) in 22Rv1 cells; type: cell-based, human
Procedure: Transient transfection and reporter gene assays were performed as previously described^49 with the following modifications. ARE reporter gene assays were performed by transfecting 22Rv1 cells with 5×ARE-tk-luc, pcDNA3.1-hAR and pCMV-β-gal for normalization. For transfection with constructs omitted for specific gene expression, corresponding empty vectors were used to ensure equal amount of total DNA used. Briefly, 22Rv1 cells seeded in 96-well plates in hormone-deprived medium supplemented with 10% cds-FBS (Hyclone) were transfected with lipofectamine 2000 (Life technology, Carlsbad, Calif., USA) and the indicated plasmid DNA. Cells were then treated at 12 hours after transfection with 3 nm R1881, indicated concentrations of RORγ antagonists or ENZ for another 24 hours before harvested for β-gal and luciferase assays. For RORE reporter gene assays, 4×AR-RORE-tk-luc was constructed by inserting four copies of the newly identified AR-RORE TTCTGGGTCA (SEQ ID NO: 1) into tk-luciferase reporter vector. AR-RORE mutant form (AR-RORE mut) contains sequences mutated from TTCTGGGTCA (SEQ ID NO: 1) to TTCTGAACGA (SEQ ID NO: 2). […] The luciferase and β-galactosidase were then analyzed with a Luciferase Assay Substrate (Promega) and Luminescent β-galactosidase Detection Kit II (Clontech). […]

22Rv1 xenografts = assay: 22Rv1 xenograft tumor growth; type: in vivo, mice; conditions: nude mice; SR2211 5 mg/kg i.p., 8k/E11 10 and 20 mg/kg i.p., five times per week (FIG. 3A)
Procedure: (§1) Four-week-old male SCID C.B17 mice (for C4-2B and VCaP) or BALB/c nu/nu athymic mice (for 22Rv11 and PC-3) were purchased from Harlan Inc. For establishing tumors, 2×10^6 cells were suspended in total of 100 μL PBS/Matrigel (1:1) and implanted subcutaneously into the dorsal flank on both sides of the mice. Animal group size of six or more was estimated to have a high statistic power, based on power calculation (http://www.biomath.info/power/) and previous studies involving the same xenograft models^34,68. When the tumor volume was approximately 80 mm^3, the mice were randomized and then treated intraperitoneally (i.p.) with 100 μl of either vehicle or RORγ antagonists SR2211, XY011/8k (in a formulation of 15% Cremophor EL, Calbiochem, 82.5% PBS, and 2.5% DMSO) for five times per week. Tumor growth was monitored by calipers with volume calculated using the equation: (π/6 (length×width2)). Body weight during the course of the study was also monitored. At the end of the studies mice were killed and tumors were dissected and weighed. Additionally, prostate, seminal vesicle, testis, kidney, heart, lung, liver, epididymal fat pad and spleen were harvested and weighed. To assess the effect of combining RORγ antagonists and ENZ on the growth of castrated-resistant VCaP xenografts (CRPC-VCaP), first, SCID C.B17 mice were injected with VCaP cells as above to establish the tumors. Then, mice bearing tumors of approximately 180 mm^3 were surgically castrated. They were then observed for tumor regression. Once tumors grew back to the pre-castration size, mice were randomized and treated with vehicle, 5 mg kg^−1 SR2211, 10 mg kg^+1 ENZ or a combination of 5 mg kg^−1 SR2211 and 10 mg kg^−1 ENZ. ENZ was given by oral gavage as previously described^68 and SR2211 was administered i.p as above. Mice were excluded from the study if bearing no tumor or tumor with size twice larger or smaller than the mean, at the time of randomization.

CRPC-VCaP xenografts = assay: Castration-resistant VCaP (CRPC-VCaP) xenograft tumor growth; type: in vivo; conditions: castrated mice, ENZ alone, 10 mg/kg oral
Procedure: as §1, with “Then, mice bearing tumors of approximately 180 mm^3 were surgically castrated. They were then observed for tumor regression. Once tumors grew back to the pre-castration size, mice were randomized and treated with vehicle, 5 mg kg^−1 SR2211, 10 mg kg^+1 ENZ or a combination of 5 mg kg^−1 SR2211 and 10 mg kg^−1 ENZ. ENZ was given by oral gavage as previously described^68 and SR2211 was administered i.p as above. Mice were excluded from the study if bearing no tumor or tumor with size twice larger or smaller than the mean, at the time of randomization.” left out

[1] = mouse, in vivo
Procedure: as §1, with “Then, mice bearing tumors of approximately 180 mm^3 were surgically castrated. They were then observed for tumor regression. Once tumors grew back to the pre-castration size, mice were randomized and treated with vehicle, 5 mg kg^−1 SR2211, 10 mg kg^+1 ENZ or a combination of 5 mg kg^−1 SR2211 and 10 mg kg^−1 ENZ. ENZ was given by oral gavage as previously described^68 and SR2211 was administered i.p as above. Mice were excluded from the study if bearing no tumor or tumor with size twice larger or smaller than the mean, at the time of randomization.” left out

CNC(=O)c1ccc(N2C(=S)N(c3ccc(C#N)c(C(F)(F)F)c3)C(=O)C2(C)C)cc1F [ENZ, enzalutamide]
response of multimerized ARE-driven reporter (AR): repressed
growth of xenograft tumors (22Rv1 xenografts): did not show any significant inhibitory effect
CRPC tumor growth (CRPC-VCaP xenografts): only marginally effective
tolerability based on weight of whole body and vital organs, and general behaviors [1]: well tolerated
